Like-named read-outs stand apart in the source and are kept apart here.
Target: human Cav2.2 (Homo sapiens, UniProt Q00975)
Test: Assessment of calcium channel activity using FLIPR (Ca2+ influx in IMR32 cells)
Assay type: cell-based
Outline: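 IC50 values derive from nonlinear sigmoidal fitting of percent inhibition, relative to inhibitor-free activity, of Ca2+ influx read by FLIPR. Cells were IMR32 human neuroblastoma, plated at 1−1.2×10^5 per well and grown 48 h at 37 °C.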

[1] = read-out: IC50 (μM) or percent inhibition (* indicates 3 minute incubation, otherwise 60 minute), IC50, 60 minute pre-incubation with compound, IMR32 cells, 80 mM KCl depolarization

human Cav2.2, sequence (Q00975 whole entry): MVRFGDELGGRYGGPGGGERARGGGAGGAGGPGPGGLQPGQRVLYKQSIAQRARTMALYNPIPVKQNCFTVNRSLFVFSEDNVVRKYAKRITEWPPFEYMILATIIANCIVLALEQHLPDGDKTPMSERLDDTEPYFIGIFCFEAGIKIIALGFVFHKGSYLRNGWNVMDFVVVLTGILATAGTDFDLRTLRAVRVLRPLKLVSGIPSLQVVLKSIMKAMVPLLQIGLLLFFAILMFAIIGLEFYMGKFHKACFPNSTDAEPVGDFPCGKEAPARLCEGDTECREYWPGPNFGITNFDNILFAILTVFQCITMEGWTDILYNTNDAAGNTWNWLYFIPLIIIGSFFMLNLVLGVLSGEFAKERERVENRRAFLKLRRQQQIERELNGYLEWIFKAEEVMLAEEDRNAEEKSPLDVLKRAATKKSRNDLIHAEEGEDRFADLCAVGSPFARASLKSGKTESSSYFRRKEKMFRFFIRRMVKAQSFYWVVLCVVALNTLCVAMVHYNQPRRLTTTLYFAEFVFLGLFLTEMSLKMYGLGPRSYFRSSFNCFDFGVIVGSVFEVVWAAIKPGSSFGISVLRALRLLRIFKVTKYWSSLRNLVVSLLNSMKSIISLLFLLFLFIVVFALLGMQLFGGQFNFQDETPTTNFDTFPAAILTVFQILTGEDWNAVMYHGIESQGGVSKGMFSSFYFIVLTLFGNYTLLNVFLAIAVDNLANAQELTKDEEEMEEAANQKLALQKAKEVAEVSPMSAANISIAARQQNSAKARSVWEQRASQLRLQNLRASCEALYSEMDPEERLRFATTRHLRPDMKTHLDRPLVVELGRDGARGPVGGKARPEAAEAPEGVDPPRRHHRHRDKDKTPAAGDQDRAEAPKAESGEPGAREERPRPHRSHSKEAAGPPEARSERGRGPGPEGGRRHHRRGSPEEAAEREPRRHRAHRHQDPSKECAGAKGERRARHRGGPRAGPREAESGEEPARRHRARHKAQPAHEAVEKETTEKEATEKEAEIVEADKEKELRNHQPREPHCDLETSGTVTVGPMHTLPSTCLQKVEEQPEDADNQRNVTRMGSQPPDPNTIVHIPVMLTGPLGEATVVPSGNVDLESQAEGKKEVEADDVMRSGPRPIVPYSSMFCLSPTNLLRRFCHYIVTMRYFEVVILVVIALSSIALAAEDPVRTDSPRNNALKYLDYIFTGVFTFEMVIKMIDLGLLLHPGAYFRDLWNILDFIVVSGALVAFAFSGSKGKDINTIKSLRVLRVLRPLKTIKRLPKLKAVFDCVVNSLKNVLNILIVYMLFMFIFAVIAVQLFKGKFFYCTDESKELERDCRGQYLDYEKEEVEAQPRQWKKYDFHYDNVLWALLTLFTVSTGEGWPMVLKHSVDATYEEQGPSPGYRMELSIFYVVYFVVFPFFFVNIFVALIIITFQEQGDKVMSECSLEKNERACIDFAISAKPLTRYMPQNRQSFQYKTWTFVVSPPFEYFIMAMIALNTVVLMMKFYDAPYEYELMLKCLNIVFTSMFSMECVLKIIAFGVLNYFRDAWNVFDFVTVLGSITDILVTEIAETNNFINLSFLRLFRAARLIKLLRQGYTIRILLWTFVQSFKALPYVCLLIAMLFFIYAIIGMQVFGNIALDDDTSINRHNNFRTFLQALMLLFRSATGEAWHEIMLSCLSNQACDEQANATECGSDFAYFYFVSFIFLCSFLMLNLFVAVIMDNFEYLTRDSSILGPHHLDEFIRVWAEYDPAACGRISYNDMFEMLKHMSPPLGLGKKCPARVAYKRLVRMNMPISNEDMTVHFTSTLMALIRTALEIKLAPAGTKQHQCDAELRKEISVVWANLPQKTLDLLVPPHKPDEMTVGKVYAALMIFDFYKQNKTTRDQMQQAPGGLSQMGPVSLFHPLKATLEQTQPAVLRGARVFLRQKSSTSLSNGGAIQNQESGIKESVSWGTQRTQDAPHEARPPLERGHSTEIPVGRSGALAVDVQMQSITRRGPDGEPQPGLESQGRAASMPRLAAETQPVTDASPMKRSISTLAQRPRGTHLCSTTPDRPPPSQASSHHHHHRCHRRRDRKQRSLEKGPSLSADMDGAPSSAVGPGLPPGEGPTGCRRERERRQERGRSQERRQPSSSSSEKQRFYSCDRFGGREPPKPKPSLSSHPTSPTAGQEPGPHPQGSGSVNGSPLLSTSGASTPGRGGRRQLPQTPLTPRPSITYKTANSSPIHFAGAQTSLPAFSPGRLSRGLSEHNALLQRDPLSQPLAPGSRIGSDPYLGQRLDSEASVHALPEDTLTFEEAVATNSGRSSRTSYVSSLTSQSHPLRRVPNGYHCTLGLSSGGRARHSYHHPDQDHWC
human Cav2.2, sequence (P54289 25-956 partner limits assumed): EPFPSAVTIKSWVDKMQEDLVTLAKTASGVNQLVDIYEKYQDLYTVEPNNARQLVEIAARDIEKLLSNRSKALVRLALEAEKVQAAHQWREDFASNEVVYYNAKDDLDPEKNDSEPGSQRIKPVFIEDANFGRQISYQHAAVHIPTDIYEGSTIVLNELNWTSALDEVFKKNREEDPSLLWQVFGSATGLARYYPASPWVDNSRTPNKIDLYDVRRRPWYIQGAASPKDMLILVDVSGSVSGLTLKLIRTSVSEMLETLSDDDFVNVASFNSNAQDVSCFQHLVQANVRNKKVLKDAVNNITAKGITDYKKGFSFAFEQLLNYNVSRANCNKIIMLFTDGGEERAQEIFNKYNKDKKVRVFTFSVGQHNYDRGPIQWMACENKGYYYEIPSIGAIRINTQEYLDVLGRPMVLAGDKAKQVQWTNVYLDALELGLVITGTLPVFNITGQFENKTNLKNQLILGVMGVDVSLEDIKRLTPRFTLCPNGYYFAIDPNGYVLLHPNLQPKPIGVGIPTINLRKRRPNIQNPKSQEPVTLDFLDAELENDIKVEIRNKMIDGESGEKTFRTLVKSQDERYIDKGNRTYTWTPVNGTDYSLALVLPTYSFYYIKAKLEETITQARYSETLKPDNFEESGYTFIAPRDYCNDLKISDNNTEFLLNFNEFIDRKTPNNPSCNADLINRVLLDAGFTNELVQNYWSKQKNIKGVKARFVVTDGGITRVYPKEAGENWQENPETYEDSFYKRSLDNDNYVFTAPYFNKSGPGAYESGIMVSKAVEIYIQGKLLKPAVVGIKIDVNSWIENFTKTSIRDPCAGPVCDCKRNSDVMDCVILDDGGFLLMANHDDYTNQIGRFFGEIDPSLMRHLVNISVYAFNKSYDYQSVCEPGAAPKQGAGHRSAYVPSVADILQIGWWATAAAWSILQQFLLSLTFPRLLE
human Cav2.2, sequence (P54289 957-1103 partner limits assumed): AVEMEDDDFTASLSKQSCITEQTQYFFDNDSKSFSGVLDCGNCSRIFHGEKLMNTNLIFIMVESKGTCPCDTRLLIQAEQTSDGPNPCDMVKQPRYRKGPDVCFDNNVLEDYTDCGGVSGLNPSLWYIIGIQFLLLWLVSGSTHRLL
human Cav2.2, sequence (P54284 whole entry partner): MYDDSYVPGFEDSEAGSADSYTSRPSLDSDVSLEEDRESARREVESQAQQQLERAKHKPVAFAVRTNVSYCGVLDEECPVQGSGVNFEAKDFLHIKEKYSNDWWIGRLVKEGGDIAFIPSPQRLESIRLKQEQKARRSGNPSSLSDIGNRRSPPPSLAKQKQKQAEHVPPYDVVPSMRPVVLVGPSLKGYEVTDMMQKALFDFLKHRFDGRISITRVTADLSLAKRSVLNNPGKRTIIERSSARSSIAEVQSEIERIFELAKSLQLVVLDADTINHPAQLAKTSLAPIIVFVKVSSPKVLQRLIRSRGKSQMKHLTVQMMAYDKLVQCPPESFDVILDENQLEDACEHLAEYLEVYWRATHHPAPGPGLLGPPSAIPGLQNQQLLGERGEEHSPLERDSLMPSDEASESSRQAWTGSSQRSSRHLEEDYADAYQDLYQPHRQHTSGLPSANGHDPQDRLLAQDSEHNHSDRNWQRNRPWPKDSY

IC50 [µM]	IC50 [1] [µM]	Compound
1.44		Cn1c(CN[C@H]2CC[C@@H]3CN(c4cccc(C(F)(F)F)n4)C[C@@H]32)cc2ccccc21 [Example 720, (3aR,4S,6aS)-N-[(1-methyl-1H-indol-2-yl)methyl]-2-[6-(trifluoromethyl)pyridin-2-yl]octahydrocyclopenta[c]pyrrol-4-amine]
2.06		O=C(N[C@H]1CC[C@@H]2CN(c3cccc(C(F)(F)F)n3)C[C@@H]21)c1cccc(O)c1 [Example 577, 3-hydroxy-N-{(3aR,4S,6aS)-2-[6-(trifluoromethyl)pyridin-2-yl]octahydrocyclopenta[c]pyrrol-4-yl}benzamide]
1.69		O=C(N[C@H]1CC[C@@H]2CN(c3ccccc3C(F)(F)F)C[C@@H]21)[C@@H]1C[C@@H](F)CN1 [Example 622, (4R)-4-fluoro-N-{(3aR,4S,6aS)-2-[2-(trifluoromethyl)phenyl]octahydrocyclopenta[c]pyrrol-4-yl}-L-prolinamide]
1.1		COc1ccc2[nH]cc(CN[C@H]3CC[C@@H]4CN(c5cccc(C(F)(F)F)n5)C[C@@H]43)c2c1 [Example 685, (3aR,4S,6aS)-N-[(5-methoxy-1H-indol-3-yl)methyl]-2-[6-(trifluoromethyl)pyridin-2-yl]octahydrocyclopenta[c]pyrrol-4-amine]
1.15		CN[C@@H](CC(C)C)C(=O)N[C@H]1CC[C@@H]2CN(c3ccc(OC(F)(F)F)cc3F)C[C@@H]21 [Example 774, N-{(3aR,4S,6aS)-2-[2-fluoro-4-(trifluoromethoxy)phenyl]octahydrocyclopenta[c]pyrrol-4-yl}-N^2-methyl-L-leucinamide]
2.8		O=C(Nc1ccc(F)c(Cl)c1)N[C@H]1CC[C@@H]2CN(c3cccc(C(F)(F)F)n3)C[C@@H]21 [Example 714, 1-(3-chloro-4-fluorophenyl)-3-{(3aR,4S,6aS)-2-[6-(trifluoromethyl)pyridin-2-yl]octahydrocyclopenta[c]pyrrol-4-yl}urea]
1.45		CC(C)N[C@H]1CC[C@@H]2CN(c3cccc(C(F)(F)F)n3)C[C@@H]21 [Example 609, (3aR,4S,6aS)-N-isopropyl-2-[6-(trifluoromethyl)pyridin-2-yl]octahydrocyclopenta[c]pyrrol-4-amine]
0.63		CN[C@@H](CC(C)C)C(=O)N[C@H]1CC[C@@H]2CN(c3ncc(C(F)(F)F)cc3Br)C[C@@H]21 [Example 766, N-{(3aR,4S,6aS)-2-[3-bromo-5-(trifluoromethyl)pyridin-2-yl]octahydrocyclopenta[c]pyrrol-4-yl}-N^2-methyl-L-leucinamide]
0.36		CN[C@@H](CC(C)C)C(=O)N[C@H]1CC[C@@H]2CN(c3ccc(F)cc3C(F)(F)F)C[C@@H]21 [Example 737, N-{(3aR,4S,6aS)-2-[4-fluoro-2-(trifluoromethyl)phenyl]octahydrocyclopenta[c]pyrrol-4-yl}-N^2-methyl-L-leucinamide]
14.7		O=C(N[C@H]1CC[C@@H]2CN(c3ccccc3F)C[C@@H]21)[C@@H]1C[C@@H](F)CN1 [Example 661, (4R)-4-fluoro-N-[(3aR,4S,6aS)-2-(2-fluorophenyl)octahydrocyclopenta[c]pyrrol-4-yl]-L-prolinamide]
1.65		Fc1ccc(-c2n[nH]cc2CN[C@H]2CC[C@@H]3CN(c4cccc(C(F)(F)F)n4)C[C@@H]32)cc1 [Example 672, (3aR,4S,6aS)-N-{[3-(4-fluorophenyl)-1H-pyrazol-4-yl]methyl}-2-[6-(trifluoromethyl)pyridin-2-yl]octahydrocyclopenta[c]pyrrol-4-amine]

Further lines, the compound ahead of its results:

Compound	IC50 [µM]	IC50 [1] [µM]
O=C(N[C@H]1CC[C@H]2CN(Cc3ccccc3C(F)(F)F)C[C@H]21)C(C1CCCCC1)C1CCCCC1 [Example 60, 2,2-dicyclohexyl-N-{(3aS,4S,6aR)-2-[2-(trifluoromethyl)benzyl]octahydrocyclopenta[c]pyrrol-4-yl}acetamide]	2.43	
O=C(N[C@@H]1CC[C@H]2CN(Cc3ccccc3)C[C@H]21)C(c1ccccc1)C1CCCC1 (relative stereo) [Example 8, N-[(3aS*,4R*,6aR*)-2-benzyloctahydrocyclopenta[c]pyrrol-4-yl]-2-cyclopentyl-2-phenylacetamide]		1.07
O=S(=O)(c1cccc(C(F)(F)F)c1)N(C1CC1)[C@H]1CC[C@H]2CN(Cc3ccccc3)C[C@H]21 (relative stereo) [Example 199, N-[(3aS*,4S*,6aR*)-2-benzyloctahydrocyclopenta[c]pyrrol-4-yl]-N-cyclopropyl-3-(trifluoromethyl)benzenesulfonamide]		2.21
CC(C)(C)C[C@H](N)C(=O)N[C@H]1CC[C@@H]2CN(Cc3ccccc3)C[C@@H]21 [Example 361, N^1-[(3aR,4S,6aS)-2-benzyloctahydrocyclopenta[c]pyrrol-4-yl]-4-methyl-L-leucinamide]		24.7
O=C(N[C@H]1CC[C@H]2CN(CCCc3ccc(C(F)(F)F)cc3)C[C@H]21)C(C1CCCCC1)C1CCCCC1 [Example 70, 2,2-dicyclohexyl-N-((3aS,4S,6aR)-2-{3-[4-(trifluoromethyl)phenyl]propyl}octahydrocyclopenta[c]pyrrol-4-yl)acetamide]		1.93
CC(C)C(C(=O)N[C@H]1CC[C@@H]2CN(Cc3cccs3)C[C@@H]21)c1ccccc1 (stereo partly drawn) [Example 102, 3-methyl-2-phenyl-N-[(3aR,4S,6aS)-2-(thien-2-ylmethyl)octahydrocyclopenta[c]pyrrol-4-yl]butanamide]		2.77
CC[C@H](C)[C@H](NC)C(=O)N[C@@H]1CC[C@H]2CN(Cc3ccccc3)C[C@H]21 [Example 354, N^1-[(3aS,4R,6aR)-2-benzyloctahydrocyclopenta[c]pyrrol-4-yl]-N^2-methyl-L-isoleucinamide]	> 30	
O=C(N[C@H]1CC[C@H]2CN(Cc3cccc(C(F)(F)F)c3)C[C@H]21)C(O)(C1CCCCC1)C1CCCCC1 [Example 152, 2,2-dicyclohexyl-2-hydroxy-N-{(3aS,4S,6aR)-2-[3-(trifluoromethyl)benzyl]octahydrocyclopenta[c]pyrrol-4-yl}acetamide]	0.51	
O=C(N[C@H]1CC[C@@H]2CN(c3cccc(C(F)(F)F)n3)C[C@@H]21)c1ccc(F)c(Cl)c1 [Example 566, 3-chloro-4-fluoro-N-{(3aR,4S,6aS)-2-[6-(trifluoromethyl)pyridin-2-yl]octahydrocyclopenta[c]pyrrol-4-yl}benzamide]	0.81	
CN[C@@H](CC(C)(C)C)C(=O)N(C)[C@H]1CC[C@@H]2CN(S(=O)(=O)c3ccc(C(F)(F)F)cc3Cl)C[C@@H]21 [Example 439, N^1-((3aR,4S,6aS)-2-{[2-chloro-4-(trifluoromethyl)phenyl]sulfonyl}octahydrocyclopenta[c]pyrrol-4-yl)-N^1,N^2,4-trimethyl-L-leucinamide]		1.42
O=S(=O)(N[C@@H]1CC[C@H]2CN(CCC(c3ccc(F)cc3)c3ccc(F)cc3)C[C@H]21)c1cccc(C(F)(F)F)c1 [Example 193, N-{(3aS,4R,6aR)-2-[3,3-bis(4-fluorophenyl)propyl]octahydrocyclopenta[c]pyrrol-4-yl}-3-(trifluoromethyl)benzenesulfonamide]	0.57	
4-methyl-N^1-{(3aR,4S,6aS)-2-[2-(methylsulfonyl)pyrimidin-5-yl]octahydrocyclopenta[c]pyrrol-4-yl}-L-leucinamide [Example 442]		7.18
O=S(=O)(N[C@@H]1CC[C@H]2CN(Cc3cc(C(F)(F)F)cc(C(F)(F)F)c3)C[C@H]21)c1cccc(C(F)(F)F)c1 [Example 192, N-{(3aS,4R,6aR)-2-[3,5-bis(trifluoromethyl)benzyl]octahydrocyclopenta[c]pyrrol-4-yl}-3-(trifluoromethyl)benzenesulfonamide]		2.27
CC(C)C[C@H](N)C(=O)N[C@@H]1CC[C@H]2CN(S(=O)(=O)c3cccc(C(F)(F)F)c3)C[C@H]21 [Example 184, N^1-((3aS,4R,6aR)-2-{[3-(trifluoromethyl)phenyl]sulfonyl}octahydrocyclopenta[c]pyrrol-4-yl)-L-leucinamide]		1.45
CCN(CC)[C@H]1CC[C@@H]2CN(S(=O)(=O)c3ccc(C(F)(F)F)cc3)C[C@@H]21 [Example 289, (3aR,4S,6aS)-N,N-diethyl-2-{[4-(trifluoromethyl)phenyl]sulfonyl}octahydrocyclopenta[c]pyrrol-4-amine]		9.75
O=C(CCCC(c1ccc(F)cc1)c1ccc(F)cc1)N[C@@H]1CC[C@H]2CN(Cc3cccc(C(F)(F)F)c3)C[C@H]21 (relative stereo) [Example 142, 5,5-bis(4-fluorophenyl)-N-{(3aS*,4R*,6aR*)-2-[3-(trifluoromethyl)benzyl]octahydrocyclopenta[c]pyrrol-4-yl}pentanamide]		0.86
CC(C)(C)C[C@H](NCC1CC1)C(=O)N[C@H]1CC[C@@H]2CN(c3cccc(C(F)(F)F)n3)C[C@@H]21 [Example 479, N^2-(cyclopropylmethyl)-4-methyl-N^1-{(3aR,4S,6aS)-2-[6-(trifluoromethyl)pyridin-2-yl]octahydrocyclopenta[c]pyrrol-4-yl}-L-leucinamide]		0.26
CC(C)C[C@H](NC(=O)OC1CCCC1)C(=O)N[C@@H]1CC[C@H]2CN(Cc3cccc(C(F)(F)F)c3)C[C@H]21 [Example 179, cyclopentyl(S)-4-methyl-1-oxo-1-((3aS,4R,6aR)-2-(3-(trifluoromethyl)benzyl)octahydrocyclopenta[c]pyrrol-4-ylamino)pentan-2-ylcarbamate]		0.89
O=C(N[C@@H]1CC[C@H]2CN(Cc3cc(C(F)(F)F)cc(C(F)(F)F)c3)C[C@H]21)C(C1CCCCC1)C1CCCCC1 [Example 77, N-{(3aS,4R,6aR)-2-[3,5-bis(trifluoromethyl)benzyl]octahydrocyclopenta[c]pyrrol-4-yl}-2,2-dicyclohexylacetamide]		9.36
CC(C)C(C(=O)N[C@H]1CC[C@@H]2CN(Cc3cccc(Cl)c3)C[C@@H]21)c1ccccc1 (stereo partly drawn) [Example 86, N-[(3aR,4S,6aS)-2-(3-chlorobenzyl)octahydrocyclopenta[c]pyrrol-4-yl]-3-methyl-2-phenylbutanamide]		1.63

— patent publication US8691865B2 (AbbVie Inc., priority 2008, dated 2014)
